Reference: patent publication US20180155344A1, “TRICYCLIC PIPERIDINE COMPOUNDS” (ACTELION PHARMACEUTICALS LTD, priority 2015, published 2018)

Molecular target: T1, human TPH1 (Homo sapiens, UniProt P17752)
T1 sequence (P17752 1-444): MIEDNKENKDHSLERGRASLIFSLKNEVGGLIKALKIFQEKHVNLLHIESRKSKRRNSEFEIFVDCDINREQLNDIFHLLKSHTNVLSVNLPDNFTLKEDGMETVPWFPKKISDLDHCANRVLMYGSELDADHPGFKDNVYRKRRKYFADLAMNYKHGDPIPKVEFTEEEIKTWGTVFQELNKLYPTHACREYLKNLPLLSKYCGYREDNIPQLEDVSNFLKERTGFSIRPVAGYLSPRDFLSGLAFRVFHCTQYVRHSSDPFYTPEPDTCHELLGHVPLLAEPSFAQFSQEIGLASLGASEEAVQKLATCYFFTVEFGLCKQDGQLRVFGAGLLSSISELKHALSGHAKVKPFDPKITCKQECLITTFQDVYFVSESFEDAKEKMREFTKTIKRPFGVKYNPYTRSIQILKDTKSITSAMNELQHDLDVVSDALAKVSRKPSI
Assay: biochemical
How it was run: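 Inhibition is derived from 5-hydroxy-L-tryptophan fluorescence (540 nm emission, 300 nm excitation) after perchloric acid stop, relative to DMSO vehicle. Recombinant full-length human enzyme (40-80 nM) reacts with 40 μM tryptophan plus 100 μM methyltetrahydropterin, pH 7.6 Tris/DTT/catalase, 15° C, 60 min.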

Q: Which IC50 does the source give for COc1ccc(C2c3c(nc4cc(Cl)ccn34)CCN2C(=O)COc2ccc(CN3CCOCC3)cc2Cl)c(F)c1 (stereo not drawn) [Example 2.3.1, 1-(7-chloro-1-(2-fluoro-4-methoxyphenyl)-3,4-dihydroimidazo[1,2-a:5,4-c′]dipyridin-2(1H)-yl)-2-(2-chloro-4-(morpholinomethyl)phenoxy)ethan-1-one] here?
A: 8 nM

Q: How did the IC50 turn out when COc1ccc(C2c3c(nc4cc(Cl)ccn34)CCN2C(=O)COc2ccc(CN3CCOCC3)nc2Cl)c(F)c1 (stereo not drawn) [Example 2.3.2, 1-(7-chloro-1-(2-fluoro-4-methoxyphenyl)-3,4-dihydroimidazo[1,2-a:5,4-c′]dipyridin-2(1H)-yl)-2-((2-chloro-6-(morpholinomethyl)pyridin-3-yl)oxy)ethan-1-one] was run?
A: 59 nM

Q: For COc1ccc(C2c3c(nc4cc(Cl)ccn34)CCN2C(=O)COc2nn(C)c(C(F)(F)F)c2Cl)c(F)c1 (stereo not drawn) [Example 2.3.3, 1-(7-chloro-1-(2-fluoro-4-methoxyphenyl)-3,4-dihydroimidazo[1,2-a:5,4-c′]dipyridin-2(1H)-yl)-2-((4-chloro-1-methyl-5-(trifluoromethyl)-1H-pyrazol-3-yl)oxy)ethan-1-one], which IC50 is on record?
A: 208 nM

Q: With COc1ccc([C@@H]2c3c(nc4cc(Cl)ccn34)CCN2C(=O)COc2ccc(N3CCOCC3)cc2Cl)c(F)c1 [Example 2.3.4, 1-((1R)-7-chloro-1-(2-fluoro-4-methoxyphenyl)-3,10a-dihydroimidazo[1,2-a:5,4-c′]dipyridin-2(1H)-yl)-2-(2-chloro-4-morpholinophenoxy)ethan-1-one] as the compound, how does the IC50 read?
A: 12 nM

Q: Which IC50 does the source give for CS(=O)(=O)Nc1ccc(OCC(=O)N2CCc3nc4cc(Cl)ccn4c3C2c2ccc(Cl)cc2F)c(Cl)n1 (stereo not drawn) [Example 2.4.1, N-(6-chloro-5-(2-(7-chloro-1-(4-chloro-2-fluorophenyl)-3,4-dihydroimidazo[1,2-a:5,4-c′]dipyridin-2(1H)-yl)-2-oxoethoxy)pyridin-2-yl)methanesulfonamide] here?
A: 8 nM

Q: With COc1ccc([C@@H]2c3c(nc4cc(Cl)ccn34)CCN2C(=O)COc2ccc(N3CCOCC3)cc2Cl)cn1 [Example 2.5.1, 1-((1R)-7-chloro-1-(6-methoxypyridin-3-yl)-3,10a-dihydroimidazo[1,2-a:5,4-c′]dipyridin-2(1H)-yl)-2-(2-chloro-4-morpholinophenoxy)ethan-1-one] as the compound, how does the IC50 read?
A: 89 nM

Q: For CC(C)c1noc(C2c3c(nc4cc(Cl)ccn34)CCN2C(=O)COc2ccc(N3CCOCC3)nc2Cl)n1 (stereo not drawn) [Example 2.6.1, 1-(7-chloro-1-(3-isopropyl-1,2,4-oxadiazol-5-yl)-3,4-dihydroimidazo[1,2-a:5,4-c′]dipyridin-2(1H)-yl)-2-((2-chloro-6-morpholinopyridin-3-yl)oxy)ethan-1-one], which IC50 is on record?
A: 225 nM

Q: COc1ccc(COc2cc(C3c4c(nc5cc(Cl)ccn45)CCN3C(=O)COc3ccc4ccccc4c3)ccc2OC)cc1 (stereo not drawn) [Example 2.7.1, 1-(7-chloro-1-(4-methoxy-3-((4-methoxybenzyl)oxy)phenyl)-3,4-dihydroimidazo[1,2-a:5,4-c′]dipyridin-2(1H)-yl)-2-(naphthalen-2-yloxy)ethan-1-one] was tested. Which IC50 did it give?
A: 60 nM

Q: For COc1ccc(C2c3c(nc4cc(Cl)ccn34)CCN2C(=O)COc2ccc3ccccc3c2)cc1O (stereo not drawn) [Example 2.8.1, 1-(7-chloro-1-(3-hydroxy-4-methoxyphenyl)-3,4-dihydroimidazo[1,2-a:5,4-c′]dipyridin-2(1H)-yl)-2-(naphthalen-2-yloxy)ethan-1-one], which IC50 is on record?
A: 219 nM

Q: With COc1ccc(C2c3c(nc4cc(Cl)ccn34)CCN2C(=O)COc2ccc(CN3CCOCC3)cc2Cl)cc1O (stereo not drawn) [Example 2.8.2, 1-(7-chloro-1-(3-hydroxy-4-methoxyphenyl)-3,4-dihydroimidazo[1,2-a:5,4-c′]dipyridin-2(1H)-yl)-2-(2-chloro-4-(morpholinomethyl)phenoxy)ethan-1-one] as the compound, how does the IC50 read?
A: 154 nM

Q: With COc1ccc(C2c3c(nc4cc(Cl)ccn34)CCN2C(=O)COc2ccc3ccccc3c2)cc1OC[C@@H](O)CO (stereo partly drawn) [Example 2.9.1, 1-(7-chloro-1-(3-((S)-2,3-dihydroxypropoxy)-4-methoxyphenyl)-3,4-dihydroimidazo[1,2-a:5,4-c′]dipyridin-2(1H)-yl)-2-(naphthalen-2-yloxy)ethan-1-one] as the compound, how does the IC50 read?
A: 30 nM

Q: How did the IC50 turn out when COc1ccc(C2c3c(nc4cc(Cl)ccn34)CCN2C(=O)COc2ccc3ccccc3c2)cc1OC[C@H](O)CO (stereo partly drawn) [Example 2.10.1, 1-(7-chloro-1-(3-((R)-2,3-dihydroxypropoxy)-4-methoxyphenyl)-3,4-dihydroimidazo[1,2-a:5,4-c′]dipyridin-2(1H)-yl)-2-(naphthalen-2-yloxy)ethan-1-one] was run?
A: 34 nM

Q: For COc1ccc(C2c3c(nc4cc(Cl)ccn34)CCN2C(=O)COc2ccc(CN3CCOCC3)cc2Cl)cc1OC[C@H](O)CO (stereo partly drawn) [Example 2.10.2, 1-(7-chloro-1-(3-((R)-2,3-dihydroxypropoxy)-4-methoxyphenyl)-3,4-dihydroimidazo[1,2-a:5,4-c′]dipyridin-2(1H)-yl)-2-(2-chloro-4-(morpholinomethyl)phenoxy)ethan-1-one], which IC50 is on record?
A: 19 nM

Q: With COCCCOc1cc(C2c3c(nc4cc(Cl)ccn34)CCN2C(=O)COc2ccc3ccccc3c2)ccc1OC (stereo not drawn) [Example 2.11.1, 1-(7-chloro-1-(4-methoxy-3-(3-methoxypropoxy)phenyl)-3,4-dihydroimidazo[1,2-a:5,4-c′]dipyridin-2(1H)-yi)-2-(naphthalen-2-yloxy)ethan-1-one] as the compound, how does the IC50 read?
A: 32 nM

Q: How did the IC50 turn out when COc1ccc(C2c3c(nc4cc(Cl)ccn34)CCN2C(=O)COc2ccc3ccccc3c2)cc1OCCCO (stereo not drawn) [Example 2.12.1, 1-(7-chloro-1-(3-(3-hydroxypropoxy)-4-methoxyphenyl)-3,4-dihydroimidazo[1,2-a:5,4-c′]dipyridin-2(1H)-yl)-2-(naphthalen-2-yloxy)ethan-1-one] was run?
A: 22 nM

Q: Which IC50 does the source give for COc1ccc(C2c3c(nc4cc(Cl)ccn34)CCN2C(=O)COc2ccc3ccccc3c2)cc1OCCO (stereo not drawn) [Example 2.13.1, 1-(7-chloro-1-(3-(2-hydroxyethoxy)-4-methoxyphenyl)-3,4-dihydroimidazo[1,2-a:5,4-c′]dipyridin-2(1H)-yl)-2-(naphthalen-2-yloxy)ethan-1-one] here?
A: 34 nM

Q: For COc1ccc(C2c3c(nc4cc(Cl)ccn34)CCN2C(=O)COc2ccc(CN3CCOCC3)cc2Cl)cc1OCCO (stereo not drawn) [Example 2.13.2, 1-(7-chloro-1-(3-(2-hydroxyethoxy)-4-methoxyphenyl)-3,4-dihydroimidazo[1,2-a:5,4-c′]dipyridin-2(1H)-yl)-2-(2-chloro-4-(morpholinomethyl)phenoxy)ethan-1-one], which IC50 is on record?
A: 23 nM

Q: Which IC50 does the source give for COC(=O)COc1cc(C2c3c(nc4cc(Cl)ccn34)CCN2C(=O)COc2ccc(CN3CCOCC3)cc2Cl)ccc1OC (stereo not drawn) [Example 2.14.1, Methyl 2-(5-(7-chloro-2-(2-(2-chloro-4-(morpholinomethyl)phenoxy)acetyl)-1,2,3,4-tetrahydroimidazo[1,2-a:5,4-c′]dipyridin-1-yl)-2-methoxyphenoxy)acetate] here?
A: 88 nM

Q: For Cc1ccc(C2c3c(nc4cc(Cl)ccn34)CCN2C(=O)COc2ccc(NS(C)(=O)=O)nc2Cl)c(F)c1 (stereo not drawn) [Example 2.15.1, N-(6-chloro-5-(2-(7-chloro-1-(2-fluoro-4-methylphenyl)-3,4-dihydroimidazo[1,2-a:5,4-c′]dipyridin-2(1H)-yl)-2-oxoethoxy)pyridin-2-yl)methanesulfonamide], which IC50 is on record?
A: 51 nM

Q: How did the IC50 turn out when COc1ccc(C2c3c(nc4cc(C(F)(F)F)ccn34)CCN2C(=O)COc2ccc3ccccc3c2)cc1OC (stereo not drawn) [Example 3.1.1, 1-(1-(3,4-dimethoxyphenyl)-7-(trifluoromethyl)-3,4-dihydroimidazo[1,2-a:5,4-c′]dipyridin-2(1H)-yl)-2-(naphthalen-2-yloxy)ethan-1-one] was run?
A: 15 nM

Q: COc1ccc(C2c3c(nc4cc(C(F)(F)F)ccn34)CCN2C(=O)COc2ccc(Cl)cc2Cl)cc1OC (stereo not drawn) [Example 3.1.2, 2-(2,4-Dichlorophenoxy)-1-(1-(3,4-dimethoxyphenyl)-7-(trifluoromethyl)-3,4-dihydroimidazo[1,2-a:5,4-c′]dipyridin-2(1H)-yl)ethan-1-one] was tested. Which IC50 did it give?
A: 30 nM

Q: How did the IC50 turn out when COc1ccc(C2c3c(nc4cc(C(F)(F)F)ccn34)CCN2C(=O)COc2ccc(C(F)(F)F)cc2Cl)cc1OC (stereo not drawn) [Example 3.1.3, 2-(2-chloro-4-(trifluoromethyl)phenoxy)-1-(1-(3,4-dimethoxyphenyl)-7-(trifluoromethyl)-3,4-dihydroimidazo[1,2-a:5,4-c′]dipyridin-2(1H)-yl)ethan-1-one] was run?
A: 36 nM

Q: COc1ccc(C2c3c(nc4cc(C(F)(F)F)ccn34)CCN2C(=O)COc2cc(C(F)(F)F)ccc2Cl)cc1OC (stereo not drawn) [Example 3.1.4] was tested. Which IC50 did it give?
A: 202 nM

Q: Which IC50 does the source give for COc1ccc(C2c3c(nc4cc(C(F)(F)F)ccn34)CCN2C(=O)COc2ccccc2C)cc1OC (stereo not drawn) [Example 3.1.5] here?
A: 153 nM

Q: With COc1ccc(C2c3c(nc4cc(C(F)(F)F)ccn34)CCN2C(=O)COc2ccc(C)cc2)cc1OC (stereo not drawn) [Example 3.1.6, 1-(1-(3,4-dimethoxyphenyl)-7-(trifluoromethyl)-3,4-dihydroimidazo[1,2-a:5,4-c′]dipyridin-2(1H)-yl)-2-(p-tolyloxy)ethan-1-one] as the compound, how does the IC50 read?
A: 71 nM

Q: With COc1ccc(C2c3c(nc4cc(C(F)(F)F)ccn34)CCN2C(=O)COc2ccccc2C(F)(F)F)cc1OC (stereo not drawn) [Example 3.1.7, 1-(1-(3,4-dimethoxyphenyl)-7-(trifluoromethyl)-3,4-dihydroimidazo[1,2-a:5,4-c′]dipyridin-2(1H)-yl)-2-(2-(trifluoromethyl)phenoxy)ethan-1-one] as the compound, how does the IC50 read?
A: 29 nM

Q: How did the IC50 turn out when COc1ccc(C2c3c(nc4cc(C(F)(F)F)ccn34)CCN2C(=O)COc2ccc(C(F)(F)F)cc2)cc1OC (stereo not drawn) [Example 3.1.8] was run?
A: 132 nM
